The source of these data is patent publication US8183006B2, “Screening method for identifying new aminoacyl-tRNA synthetase inhibitors” (Fundacio Privada Parc Cientific de Barcelona, priority 2006, dated 2012).

In series [1] the test system is isoleucyl-tRNA synthetases (IleRS) from Gram-positive infectious pathogens. As to conditions: cited from earlier work.
For series [2] the following is noted: limits use to topical applications; cited from earlier work.
The subject of series [3] is HeLa cells expressing S. pneumoniae editing-defective isoleucyl-tRNA synthetase (IleRSTA). Put plainly: valine toxicity in transfected HeLa cells, cell death by propidium iodide staining (flow cytometry). The series is classed as cell-based, human. As to conditions: IleRSTA-expressing HeLa cells compared to wild type IleRS or GFP expressing HeLa cells; FIG. 2. The method, then:
Cell death was measured by propidium iodide staining. Axis y represents the percentage of cell survival (abbreviated as “% C.S.”) and axis x represents the concentration of valine (mM).
For transient transfections, 20 μg of each DNA construct was added to 500 μl water containing 252 mM CaCl2. Then, 500 μl of 2×Hepes-buffered-saline buffer (280 mM NaCl, 10 mM KCl, 1.5 mM Na2HPO4, 50 mM HEPES, 12 mM dextrose, pH 7.1) was added to the DNA mixture drop by drop. 16 hours after adding this transfection mixture to the cells, the medium containing DNA was removed and new medium was added. After 24 hours, transfected cells were used for experimentation.
10 μg/ml propidium iodide was used for determination of cell viability in transiently GFP fusion proteins transfected HeLa cells. Stained cells were analyzed immediately using a Coulter Epics XL (Beckman Coulter) and analyzed using System II software.
To assess whether the expression S. pneumoniae mutated editing domain GFPIleRS has a toxic effect in a mammalian system in the presence of increasing concentrations of valine in the media, GFP, S. pneumoniae wild type (IleRS) and mutated editing domain (IleRSTA) were expressed in HeLa cells.

For the molecule `C/C(=C\C(=O)OCCCCCCCCC(=O)O)C[C@@H]1OC[C@H](C[C@@H]2O[C@H]2[C@@H](C)[C@H](C)O)[C@@H](O)[C@H]1O` [Pseudomonic acid], the “selectivity for pathogen vs. mammalian IleRS” value in series [1] is recorded as roughly 8000 fold. In series [2], the systemic bioavailability entry is listed as “lack of systemic bioavailability”.
`CC(C)[C@H](N)C(=O)O` [valine]: the “sensitivity to cell death (% cell survival) with increasing concentrations of valine in the media” value in series [3] is “higher sensitivity”.
